pIC50: −log10 of the molar value. Read-outs that look alike come from different tables or passages of the source.
Assays:
NAMPT = NAMPT (Homo sapiens (Human), UniProt P43490); test: NAMPT biochemical inhibition assay (NMN quantified by mass spectrometry); details: NAMPT biochemical inhibition; read-out: Biochem IC50
A2780 cells = test: In-vitro cell proliferation assay (SRB), A2780 cells; type: cell-based; details: read-out: A2780 IC50;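 further: viable cell number read as SRB absorbance, background from media-only wells subtracted, IC50 interpolated from percent inhibition at two bracketing compound concentrations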
[1] = Homo sapiens, A2780, 72 h, A2780 cells, 72 hours, SRB

Sequence of NAMPT (P43490 whole entry): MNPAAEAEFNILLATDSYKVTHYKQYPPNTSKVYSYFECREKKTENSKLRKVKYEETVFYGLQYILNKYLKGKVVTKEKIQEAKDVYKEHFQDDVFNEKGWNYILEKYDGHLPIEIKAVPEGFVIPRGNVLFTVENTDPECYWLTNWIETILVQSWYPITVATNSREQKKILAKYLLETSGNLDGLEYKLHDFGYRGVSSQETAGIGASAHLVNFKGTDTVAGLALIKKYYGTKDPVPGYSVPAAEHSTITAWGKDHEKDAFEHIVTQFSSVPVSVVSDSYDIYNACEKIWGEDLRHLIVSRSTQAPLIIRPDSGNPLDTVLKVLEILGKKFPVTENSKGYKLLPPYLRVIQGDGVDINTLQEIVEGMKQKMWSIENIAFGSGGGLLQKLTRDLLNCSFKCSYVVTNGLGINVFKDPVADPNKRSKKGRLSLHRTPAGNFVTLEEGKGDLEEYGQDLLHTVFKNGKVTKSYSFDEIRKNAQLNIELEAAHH

| SMILES | pIC50 (NAMPT) | pIC50 (A2780 cells; [1]) | further results |
| --- | --- | --- | --- |
| O=C(NCc1cccnc1)Nc1ccc(S(=O)(=O)N2CC[C@H]3CCCC[C@@H]3C2)cc1 (relative stereo) [rel-3-{4-[(4aR,8aS)-decahydroisoquinoline-2-sulfonyl]phenyl}-1-(pyridin-3-ylmethyl)urea] | 8.70 | 7.00 | – |
| O=C(NCc1cccnc1)Nc1ccc(C(=O)c2ccccc2)cc1 [1-(4-benzoylphenyl)-3-(pyridin-3-ylmethyl)urea] | – | 6.13 | – |
| O=C(NCc1cccnc1)Nc1ccc(S(=O)(=O)N2CC3CCC2C3)cc1 (centres unmarked) [1-(4-{2-azabicyclo[2.2.1]heptane-2-sulfonyl}phenyl)-3-(pyridin-3-ylmethyl)urea] | 8.00 | 6.63 | – |
| O=C(NCc1cccnc1)Nc1ccc(S(=O)(=O)N2CCC3(CCOC3)CC2)cc1 [1-(4-{2-oxa-8-azaspiro[4.5]decane-8-sulfonyl}phenyl)-3-(pyridin-3-ylmethyl)urea] | 8.30 | 7.05 | – |
| O=C(NCc1cccnc1)Nc1ccc(S(=O)(=O)N2CCCC(CN3CCCC3=O)C2)cc1 (centres unmarked) [1-(4-{3-[(2-oxopyrrolidin-1-yl)methyl]piperidine-1-sulfonyl}phenyl)-3-(pyridin-3-ylmethyl)urea] | 8.52 | 6.84 | – |
| O=C(NCc1cccnc1)Nc1ccc(S(=O)(=O)N2CCC3(CCCCC3)CC2)cc1 [1-(4-{3-azaspiro[5.5]undecane-3-sulfonyl}phenyl)-3-(pyridin-3-ylmethyl)urea] | 7.96 | 6.84 | – |
| O=C(NCc1cccnc1)Nc1ccc(S(=O)(=O)N2Cc3cccc4cccc(c34)C2)cc1 [1-(4-{3-azatricyclo[7.3.1.0^5,^13]trideca-1(13),5,7,9,11-pentaene-3-sulfonyl}phenyl)-3-(pyridin-3-ylmethyl)urea] | 8.70 | – | pIC50 (A2780 cells; A2780 cells, 72 hours, SRB): 7.59 |
| O=C(NCc1cccnc1)Nc1ccc(S(=O)(=O)N2C3CCC2COC3)cc1 [1-(4-{3-oxa-8-azabicyclo[3.2.1]octane-8-sulfonyl}phenyl)-3-(pyridin-3-ylmethyl)urea] | – | 6.54 | – |
| O=C(NCc1cccnc1)Nc1ccc(S(=O)(=O)Nc2cccc(C(F)(F)F)c2)cc1 [1-(pyridin-3-ylmethyl)-3-(4-{[3-(trifluoromethyl)phenyl]sulfamoyl}phenyl)urea] | 8.22 | – | – |
| O=C(NCc1cccnc1)Nc1cccc(S(=O)(=O)N2CCCCC2)c1 [1-[3-(piperidine-1-sulfonyl)phenyl]-3-(pyridin-3-ylmethyl)urea] | – | < 4.52 | – |
| O=C(NCc1cccnc1)Nc1ccc(S(=O)(=O)N2CCN(c3ccccc3)CC2)cc1 [1-[4-(4-phenylpiperazine-1-sulfonyl)phenyl]-3-(pyridin-3-ylmethyl)urea] | 8.30 | – | – |
| O=C(NCc1cccnc1)Nc1ccc(S(=O)(=O)N2CCC(c3ccccc3)CC2)cc1 [1-[4-(4-phenylpiperidine-1-sulfonyl)phenyl]-3-(pyridin-3-ylmethyl)urea] | 8.52 | – | – |
| O=C(NCc1cc[nH]n1)Nc1ccc(S(=O)(=O)c2ccccc2)cc1 [1-[4-(benzenesulfonyl)phenyl]-3-(1H-pyrazol-3-ylmethyl)urea] | – | < 4.70 | – |
| O=C(NCc1cccnc1)Nc1ccc(S(=O)(=O)N2CCOCC2)cc1 [1-[4-(morpholine-4-sulfonyl)phenyl]-3-(pyridin-3-ylmethyl)urea] | – | 5.87 | – |
| O=C(NCc1cccnc1)Nc1ccc(S(=O)(=O)N2CCCCC2)cc1 [1-[4-(piperidine-1-sulfonyl)phenyl]-3-(pyridin-3-ylmethyl)urea] | – | 6.78 | – |
| Nc1cccc(CNC(=O)Nc2ccc(S(=O)(=O)c3ccccc3)cc2)c1 [1-[(3-aminophenyl)methyl]-3-[4-(benzenesulfonyl)phenyl]urea] | – | 5.60 | – |
| O=C(NCc1ccc(F)cc1)Nc1ccc(S(=O)(=O)N2CCCCC2)cc1 [1-[(4-fluorophenyl)methyl]-3-[4-(piperidine-1-sulfonyl)phenyl]urea] | – | 4.60 | – |
| NC(=O)C1CCN(S(=O)(=O)c2ccc(NC(=O)NCc3cccnc3)cc2)CC1 [1-[(4-{[(pyridin-3-ylmethyl)carbamoyl]amino}benzene)sulfonyl]piperidine-4-carboxamide] | – | 5.83 | – |
| Nc1ccc(CNC(=O)Nc2ccc(S(=O)(=O)c3ccccc3)cc2)cn1 [1-[(6-aminopyridin-3-yl)methyl]-3-[4-(benzenesulfonyl)phenyl]urea] | – | – | pIC50 (A2780 cells; Homo sapiens, A2780, 72 h): 7.09 |
| O=C(NCc1cccnc1)Nc1ccc(S(=O)(=O)c2ccc(-n3cccn3)c(F)c2)cc1 [3-(4-{[3-fluoro-4-(1H-pyrazol-1-yl)benzene]sulfonyl}phenyl)-1-(pyridin-3-ylmethyl)urea] | – | 7.27 | – |
| CN(Cc1ccc(F)cc1)S(=O)(=O)c1ccc(NC(=O)NCc2cccnc2)cc1 [3-(4-{[(4-fluorophenyl)methyl](methyl)sulfamoyl}phenyl)-1-(pyridin-3-ylmethyl)urea] | 8.52 | – | – |
| C[C@@H]1[C@@H](NS(=O)(=O)c2ccc(NC(=O)NCc3cccnc3)cc2)C[C@H]2C[C@@H]1C2(C)C [3-(pyridin-3-ylmethyl)-1-(4-{[(1S,2S,3S,5R)-2,6,6-trimethylbicyclo[3.1.1]heptan-3-yl]sulfamoyl}phenyl)urea] | – | 7.02 | – |
| O=C(NCc1cccnc1)Nc1ccc(S(=O)(=O)c2ccccn2)cc1 [3-(pyridin-3-ylmethyl)-1-[4-(pyridine-2-sulfonyl)phenyl]urea] | – | 6.06 | – |
| O=C(NCc1cccnc1)Nc1ccc(S(=O)(=O)N2CCCC2)cc1 [3-(pyridin-3-ylmethyl)-1-[4-(pyrrolidine-1-sulfonyl)phenyl]urea] | – | 5.85 | – |

| SMILES | pIC50 (NAMPT) | pIC50 (A2780 cells; [1]) | further results |
| --- | --- | --- | --- |
| Cn1cc(S(=O)(=O)c2ccc(NC(=O)NCc3cccnc3)cc2)cn1 [3-[4-(1-methyl-1H-pyrazole-4-sulfonyl)phenyl]-1-(pyridin-3-ylmethyl)urea] | – | 6.61 | – |
| CC1CCN(S(=O)(=O)c2ccc(NC(=O)NCc3cccnc3)cc2)CC1 [3-[4-(4-methylpiperidine-1-sulfonyl)phenyl]-1-(pyridin-3-ylmethyl)urea] | – | 6.60 | – |
| O=C(NCc1cccnc1)Nc1ccc(S(=O)(=O)N2CCCCCC2)cc1 [3-[4-(azepane-1-sulfonyl)phenyl]-1-(pyridin-3-ylmethyl)urea] | – | 6.86 | – |
| O=C(NCc1cccnc1)Nc1ccc(S(=O)(=O)N2CCC2)cc1 [3-[4-(azetidine-1-sulfonyl)phenyl]-1-(pyridin-3-ylmethyl)urea] | – | 5.79 | – |
| O=C(Nc1ccc(S(=O)(=O)c2ccccc2)cc1)Nc1cccnc1 [3-[4-(benzenesulfonyl)phenyl]-1-(pyridin-3-yl)urea] | – | 4.56 | – |
| CN(C)c1ccc(CNC(=O)Nc2ccc(S(=O)(=O)c3ccccc3)cc2)cn1 [3-[4-(benzenesulfonyl)phenyl]-1-{[6-(dimethylamino)pyridin-3-yl]methyl}urea] | – | 4.56 | – |
| O=C(NCCc1cccnc1)Nc1ccc(S(=O)(=O)N2CCCCC2)cc1 [3-[4-(piperidine-1-sulfonyl)phenyl]-1-[2-(pyridin-3-yl)ethyl]urea] | – | 6.18 | – |
| O=C(NCc1ccccc1F)Nc1ccc(S(=O)(=O)N2CCCCC2)cc1 [3-[(2-fluorophenyl)methyl]-1-[4-(piperidine-1-sulfonyl)phenyl]urea] | – | < 4.52 | – |
| O=C(NCc1cccc(F)c1)Nc1ccc(S(=O)(=O)N2CCCCC2)cc1 [3-[(3-fluorophenyl)methyl]-1-[4-(piperidine-1-sulfonyl)phenyl]urea] | – | < 4.52 | – |
| O=C(NCc1cncc(F)c1)Nc1ccc(S(=O)(=O)N2CCCCC2)cc1 [3-[(5-fluoropyridin-3-yl)methyl]-1-[4-(piperidine-1-sulfonyl)phenyl]urea] | – | 6.12 | – |
| O=C(NCc1ccccc1)Nc1ccc(S(=O)(=O)N2CCCCC2)cc1 [3-benzyl-1-[4-(piperidine-1-sulfonyl)phenyl]urea] | – | < 4.52 | – |
| O=C(NCc1cccnc1)Nc1ccc(S(=O)(=O)c2ccc(F)cc2Cl)cc1 [3-{4-[(2-chloro-4-fluorobenzene)sulfonyl]phenyl}-1-(pyridin-3-ylmethyl)urea] | 8.10 | – | – |
| O=C(NCc1cccnc1)Nc1ccc(S(=O)(=O)Nc2ccccc2F)cc1 [3-{4-[(2-fluorophenyl)sulfamoyl]phenyl}-1-(pyridin-3-ylmethyl)urea] | 8.10 | – | – |
| O=C(NCc1cccnc1)Nc1ccc(S(=O)(=O)Nc2cccc(Br)c2)cc1 [3-{4-[(3-bromophenyl)sulfamoyl]phenyl}-1-(pyridin-3-ylmethyl)urea] | 8.52 | – | – |
| O=C(NCc1cccnc1)Nc1ccc(S(=O)(=O)Nc2cccc(Cl)c2)cc1 [3-{4-[(3-chlorophenyl)sulfamoyl]phenyl]-1-(pyridin-3-ylmethyl)urea] | 9.00 | – | – |
| Cc1cccc(NS(=O)(=O)c2ccc(NC(=O)NCc3cccnc3)cc2)c1 [3-{4-[(3-methylphenyl)sulfamoyl]phenyl}-1-(pyridin-3-ylmethyl)urea] | 8.00 | – | – |
| C[C@H]1CCCN(S(=O)(=O)c2ccc(NC(=O)NCc3cccnc3)cc2)C1 [3-{4-[(3S)-3-methylpiperidine-1-sulfonyl]phenyl}-1-(pyridin-3-ylmethyl)urea] | – | 6.98 | – |
| CCc1ccc(NS(=O)(=O)c2ccc(NC(=O)NCc3cccnc3)cc2)cc1 [3-{4-[(4-ethylphenyl)sulfamoyl]phenyl}-1-(pyridin-3-ylmethyl)urea] | 8.15 | – | – |
| CC(C)CN(C)S(=O)(=O)c1ccc(NC(=O)NCc2cccnc2)cc1 [3-{4-[methyl(2-methylpropyl)sulfamoyl]phenyl}-1-(pyridin-3-ylmethyl)urea] | 8.15 | – | – |
| CN(Cc1cccc(C(F)(F)F)c1)S(=O)(=O)c1ccc(NC(=O)NCc2cccnc2)cc1 [3-{4-[methyl({[3-(trifluoromethyl)phenyl]methyl})sulfamoyl]phenyl}-1-(pyridin-3-ylmethyl)urea] | 8.15 | – | – |
| O=C(NCc1ccc(S(=O)(=O)N2CCCCC2)cc1)Nc1cccnc1 [3-{[4-(piperidine-1-sulfonyl)phenyl]methyl}-1-(pyridin-3-yl)urea] | – | 5.65 | – |
| O=C(NCc1ccc(S(=O)(=O)N2CCCCC2)cc1)NCc1cccnc1 [3-{[4-(piperidine-1-sulfonyl)phenyl]methyl}-1-(pyridin-3-ylmethyl)urea] | – | 6.26 | – |
| C[C@@H]1CN(S(=O)(=O)c2ccc(NC(=O)NCc3cccnc3)cc2)C[C@H](C)O1 [rel-3-{4-[(2R,6S)-2,6-dimethylmorpholine-4-sulfonyl]phenyl}-1-(pyridin-3-ylmethyl)urea] | – | 7.87 | – |

— patent US11279687B2, “Compounds and compositions for the inhibition of NAMPT” (Valo Health, Inc., priority 2010, dated 2022)
